Test results: patent publication US20170174633A1 (RESEARCH TRIANGLE INSTITUTE, priority 2014, published 2017)
Where “and” joins values, the source holds several entries; their conditions need not be identical. Equal values may be shown once. Read-outs that look alike come from different tables or passages of the source.

Tests used:
NTS2 versus NTS1 = conditions: literature report; cited from earlier work
rNTS2 receptor [1] = molecular target: T1, rNTS2 receptor (Rattus norvegicus, UniProt Q63384); test: Calcium mobilization assay for NTS2 receptor (FLIPR Tetra); type: cell-based; conditions: for NTS2 Emax % of 5b / EC50: FLIPR assay, ± SEM; for NTS2 Emax % of 5b: calcium release relative to 5b; for EC50: compound induced calcium release, CHO-kl-rNTS2 cells
T1 construct: expressed in transfected cells
T1 sequence (Q63384 1-416): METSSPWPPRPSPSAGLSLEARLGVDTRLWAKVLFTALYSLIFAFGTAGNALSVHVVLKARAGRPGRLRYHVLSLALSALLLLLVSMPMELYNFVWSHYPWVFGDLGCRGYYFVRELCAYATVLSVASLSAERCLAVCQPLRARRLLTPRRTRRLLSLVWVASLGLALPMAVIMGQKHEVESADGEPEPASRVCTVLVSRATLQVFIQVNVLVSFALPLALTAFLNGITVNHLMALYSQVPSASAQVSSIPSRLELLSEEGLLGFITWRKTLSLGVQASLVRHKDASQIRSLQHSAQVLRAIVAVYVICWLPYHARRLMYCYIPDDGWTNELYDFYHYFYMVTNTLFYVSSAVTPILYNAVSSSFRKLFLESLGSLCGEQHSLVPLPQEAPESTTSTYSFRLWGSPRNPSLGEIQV
Experimental: (§1) The binding affinities of the test compounds for the rNTS1 and rNTS2 receptors listed in Tables 1 through 4 were determined using previously reported competitive binding assays^49. […] The cells used in the binding assay were CHO-kl cells (American Type Culture Collection) engineered to over-express either the rNTS1 or rNTS2 receptor. Measures of functional agonism and antagonism were obtained by measuring changes in intensity of a calcium-sensitive fluorescent dye as an indirect measure of changes in internal calcium concentrations. These measurements were performed using a FLIPR Tetra (NTS2) or a FlexStation II plate reader for NTS1 (Molecular Devices) and were analyzed using GraphPad Prism software.
CHO-kl-rNTS2 cells were maintained in DMEM/F12 supplemented with 10% FBS, pen/strep, 100 μg/ml normocin, and 400 μg/ml geneticin. For calcium mobilization assays, cells were plated at 25,000 cells/well in black, clear-bottom 96-well plates 24 hrs before the assay and incubated at 37° C., 5% CO2. 100 μl reconstituted Calcium 5 dye (Molecular Devices, diluted 1:20 in assay buffer (1×HBSS, 20 mM HEPES, 2.5 mM Probenicid, pH 7.4)) was added per well and plates were incubated for 45 min at 37° C., 5% CO2. […] Full-log serial dilutions of the test compounds were made at 10× the desired final concentration in 1% DMSO assay buffer and warmed to 37° C. After the pre-treatment incubation, fluorescence intensity was measured on a FLIPR Tetra fluorometric imaging plate reader (Molecular Devices). Relative Fluorescence Units (RFUs) were measured every second for 100 seconds (14 readings before compound addition to establish baseline fluorescence, 85 after) Exposure time 0.53 s, Gain=2000, Excitation intensity=30%, Gate open=10%. For antagonist assays, 1/10 volume of 10×concentration of the test compound dilutions in 10% DMSO in assay buffer was added to cells in lieu of the 10% DMSO only in assay buffer for the pre-treatment.
(§2) To determine EC50, IC50, and Ke values, data were fit to a three-parameter logistic equation using GraphPad Prism software. Ki values for radioligand binding assays were determined from ICso values using the equation of Cheng and Prusoff. All data are from at least three independent experiments run in duplicate wells.

rNTS2 receptor [2] = molecular target: T1, rNTS2 receptor; test: 125I-NT competitive binding assay, whole CHO-kl cells over-expressing rNTS2; conditions: for Ki: competition with 125I-NT, ± SEM, read-out: 125I-NT Binding NTS2 Ki; for NTS2/NTS1 selectivity ratio: ratio of 125I-NT binding Ki at NTS1 and NTS2; for selectivity for NTS2 (versus NTS1): relative binding affinities at NTS1 and NTS2
Experimental: as §1
Briefly, cells were plated at 100,000 cells/well in 24-well plates in complete DMEM/F12 medium supplemented with 10% fetal bovine serum, 100 units of penicillin/mL, 100 μg of streptomycin/mL, 0.1 mg/mL of normocin, and 250 μg/mL geneticin. Cells were incubated at 37° C. with 5% CO2 and 95% humidity for 48 hrs. […] Cells were washed twice in Earle's buffer, extracted in 1 ml 0.1N NaOH and counted in a Packard Cobra II Gamma Counter for 1 minute.
as §2

rNTS1 receptor [3] = molecular target: T2, rNTS1 receptor (Rattus norvegicus, UniProt P20789); test: 125I-NT competitive binding assay, whole CHO-kl cells over-expressing rNTS1; conditions: competition with 125I-NT, read-out: NTS1 Ki
T2 construct: expressed in transfected cells
Experimental: The binding affinities of the test compounds for the rNTS1 and rNTS2 receptors listed in Tables 1 through 4 were determined using previously reported competitive binding assays^49. The NTS1 and 2 receptors were labeled using ^125I-NT. The cells used in the binding assay were CHO-kl cells (American Type Culture Collection) engineered to over-express either the rNTS1 or rNTS2 receptor. Measures of functional agonism and antagonism were obtained by measuring changes in intensity of a calcium-sensitive fluorescent dye as an indirect measure of changes in internal calcium concentrations. These measurements were performed using a FLIPR Tetra (NTS2) or a FlexStation II plate reader for NTS1 (Molecular Devices) and were analyzed using GraphPad Prism software. Antagonism was measured as inhibition of NT-induced calcium release (NTS1) or inhibition of SR142948 (5b)-induced calcium release (NTS2).
Briefly, cells were plated at 100,000 cells/well in 24-well plates in complete DMEM/F12 medium supplemented with 10% fetal bovine serum, 100 units of penicillin/mL, 100 μg of streptomycin/mL, 0.1 mg/mL of normocin, and 250 μg/mL geneticin. Cells were incubated at 37° C. with 5% CO2 and 95% humidity for 48 hrs. Cells were then equilibrated for 10 minutes in Earle's buffer (130 mM NaCl, 5 mM KCl, 1.8 mM CaCl2, 0.8 mM MgCl2, and 20 mM HEPES, pH 7.4) supplemented with 0.1% BSA and 0.1% glucose, and then incubated with or without 10 nM test compound in 0.1 nM ^125I-NT at 37° C. for 30 min. Cells were washed twice in Earle's buffer, extracted in 1 ml 0.1N NaOH and counted in a Packard Cobra II Gamma Counter for 1 minute.
as §2

[4] = literature report; cited from earlier work
rNTS1 receptor [5] = molecular target: T2, rNTS1 receptor; test: Calcium mobilization assay for NTS1 receptor (FLIPR assay, FlexStation II); type: cell-based; conditions: for Kb: read-out: NTS1 Ke
Experimental: as §1
CHO-kl-rNTS1 cells were maintained in DMEM/F12 medium supplemented with 10% fetal bovine serum (Gibco), 100 U/ml penicillin/100 ug/ml streptomycin, 100 ug/ml normocin (Invivogen), and 250 ug/ml geneticin. For calcium mobilization assays, cells were plated at 30,000 cells/well in black, clear-bottom 96-well plates 24 hrs before the assay and incubated at 37° C., 5% CO2. Prior to the assay, Calcium 5 dye (Molecular Devices) was reconstituted according to manufacturer instructions. The reconstituted dye was diluted 1:40 in assay buffer (lx HBSS, 20 mM HEPES, and 2.5 mM Probenicid (Sigma), pH 7.4). Growth media was removed and 200 ul of this diluted dye was added to each well. Plates were incubated for 45 min at 37° C., 5% CO2 after dye addition. […] Full-log serial dilutions of the test compounds were made at 10× the desired final concentration in 1% DMSO assay buffer and warmed to 37° C. After the pre-treatment incubation, fluorescence intensity was measured on a FlexStation II fluorometric imaging plate reader (Molecular Devices). Relative fluorescence units (RFU) were measured before (20 readings) and after (40 readings) the agonist compound addition for a total 60 second read time (Excitation=485 nm, Emission=525 nm, cutoff=515 nm). For antagonist assays, cells were treated with Calcium dye for 45 min at 37° C., 5% CO2 as with the agonist assays. Then the test antagonist compounds were added in 1% DMSO in assay buffer and the plate was incubated for 15 min at 37° C., 5% CO2.
as §2

[6] = antagonism of NT induced calcium release, ± SEM

T2 sequence (P20789 whole entry): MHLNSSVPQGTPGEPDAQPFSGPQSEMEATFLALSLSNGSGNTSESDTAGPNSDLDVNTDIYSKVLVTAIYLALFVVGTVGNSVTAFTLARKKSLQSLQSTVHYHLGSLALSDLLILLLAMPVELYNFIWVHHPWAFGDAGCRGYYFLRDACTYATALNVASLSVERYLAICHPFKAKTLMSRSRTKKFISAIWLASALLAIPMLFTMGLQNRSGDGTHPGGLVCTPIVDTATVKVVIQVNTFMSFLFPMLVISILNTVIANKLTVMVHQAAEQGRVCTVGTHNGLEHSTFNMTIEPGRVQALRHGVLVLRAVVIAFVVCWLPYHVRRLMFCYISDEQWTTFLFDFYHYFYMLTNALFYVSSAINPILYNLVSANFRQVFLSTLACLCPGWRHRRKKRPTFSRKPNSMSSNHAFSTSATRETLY

Row | Compound | NTS2 Emax % of 5b (rNTS2 receptor [1]) | EC50 (rNTS2 receptor [1]) [nM] | Ki (rNTS2 receptor [2]) [nM] | Kb (rNTS1 receptor [5]; [6]) [nM] | further results
1 | (N^αMe)Arg-Lys-Pro-D-3,1-Nal-tLeu-Leu [compound 3] |  |  |  |  | selectivity for NTS2 (versus NTS1) (NTS2 versus NTS1): > 100 fold
2 | COc1ccccc1-c1cc(C(=O)NC2(C(=O)O)CCCCC2)nn1-c1ccc(F)cc1 [7b, 1-({[1-(4-Fluorophenyl)-5-(2-methoxyphenyl)-1H-pyrazol-3-yl]carbonyl}amino)cyclo-hexane carboxylic Acid] | 7 ± 2 % of 5b | 12 ± 6 | 153 ± 10 |  | NTS2/NTS1 selectivity ratio (rNTS2 receptor [2]): 161; selectivity for NTS2 (versus NTS1) (rNTS2 receptor [2]): 161 fold; Ki (rNTS1 receptor [3]; bound given in uM): > 25 µM
3 | (N^αMe)Arg-Lys-Pro-N-homo-Tyr-Ile-Leu [4b] |  |  |  |  | selectivity for NTS2 (versus NTS1) (NTS2 versus NTS1): 22,000 fold; plasma stability [4]: excellent plasma stability
4 | COc1cccc(OC)c1-c1cc(C(=O)NC2(C(=O)O)CCCCC2)nn1-c1ccc(F)cc1 [29b, 1-({[5-(2,6-Dimethoxyphenyl)-1-(4-fluorophenyl)-1H-pyrazol-3-yl]carbonyl}amino)cyclohexane-carboxylic Acid] | 12 ± 0.5 % of 5b | 19 ± 3 | 140 ± 29 |  | NTS2/NTS1 selectivity ratio (rNTS2 receptor [2]): 23; selectivity for NTS2 (versus NTS1) (rNTS2 receptor [2]): 23 fold; Ki (rNTS1 receptor [3]; ± SEM): 3.21 ± 0.879 µM
5 | COc1cccc(OC)c1-c1cc(C(=O)N[C@H](C(=O)O)C2CCCCC2)nn1-c1cccc2ccccc12 [24b, (2S)-Cyclohexyl({[5-(2,6-dimethoxyphenyl)-1-naphthalen-1-yl-1H-pyrazol-3-yl]carbonyl}amino)-ethanoic Acid] | 45 % of 5b and 45 ± 1 % of 5b | 159 ± 9 | 536 ± 20 | 58 ± 6 | 
6 | C[C@@H]1CN([C@H]2CC[C@](C#N)(c3ccc(F)cc3)CC2)CC[C@]1(C(=O)O)c1ccccc1 [compound 6, Levocabastine, reference compound] | 16 % of 5b and 16 ± 3 % of 5b | 28 | 33 |  | activity in NTS1 FLIPR assay (rNTS1 receptor [5]; agonist and antagonist mode versus NT): neither agonist nor antagonist activity
7 | Arg-Arg-Pro-N-homo-Tyr-Ile-Leu [4a] |  |  |  |  | selectivity for NTS2 (versus NTS1) (NTS2 versus NTS1): 12,000 fold
8 | COc1cccc(OC)c1-c1cc(C(=O)NC2(C(=O)O)C3CC4CC(C3)CC2C4)nn1-c1ccc(F)cc1 (stereo not drawn) [compound 30, 2-({[5-(2,6-Dimethoxyphenyl)-1-(4-fluorophenyl)-1H-pyrazol-3-yl]carbonyl}amino) tricyclo[3.3.1.13,7]decane-2-carboxylic Acid] | 34 % of 5b and 34 ± 5 % of 5b | 68 | 110 ± 29 | 191 ± 47 | 
9 | COc1cccc(OC)c1-c1cc(C(=O)NC2(C(=O)O)C3CC4CC(C3)CC2C4)nn1-c1ccc(C(=O)N(C)CCCN(C)C)cc1C(C)C (stereo not drawn) [5b, reference compound] | 100 ± 5 % of 5b | 20 | 6 | 1.5 | NTS1 Ke (rNTS1 receptor [5]; [6]): 1.5 ± 0.6 nM; EC80 of 5b (rNTS2 receptor [1]; final concentration used in IC50 assays): 73 nM
10 | COc1ccccc1-c1cc(C(=O)NC2(C(=O)O)CCCCC2)nn1-c1ccnc2cc(Cl)ccc12 [23b, 1-({[1-(7-Chloroquinolin-4-yl)-5-(2-methoxyphenyl)-1H-pyrazol-3-yl]carbonyl}amino)cyclohexane carboxylic Acid] | 35 % of 5b and 35 ± 1 % of 5b | 62 ± 9 | 533 ± 153 | 4550 ± 636 | 
11 | COc1ccccc1-c1cc(C(=O)NC2(C(=O)O)C3CC4CC(C3)CC2C4)nn1-c1ccc(F)cc1 (stereo not drawn) [compound 31, 2-({[1-(4-fluorophenyl)-5-(2-methoxyphenyl)-1H-pyrazol-3-yl]carbonyl}amino)tricyclo[3.3.1.13,7]decane-2-carboxylic acid] | 42 ± 12 % of 5b | 138 ± 55 | 23 ± 5 | 3810 ± 422 | NTS2/NTS1 selectivity ratio (rNTS2 receptor [2]): 188; Ki (rNTS1 receptor [3]; ± SEM): 4.33 ± 0.656 µM
12 | COc1cccc(OC)c1-c1cc(C(=O)NC2(C(=O)O)CCCC2)nn1-c1ccnc2cc(Cl)ccc12 [22b, 1-({[1-(7-Chloroquinolin-4-yl)-5-(2,6-dimethoxyphenyl)-1H-pyrazol-3-yl]carbonyl}amino)cyclo-pentanecarboxylic Acid] | 76 ± 4 % of 5b | 20 ± 4 | 102 | 222 ± 14 | 
